The record followed here is patent US20230111310A1, “CARBOXYLIC ACID DERIVATIVE-SUBSTITUTED IMINO ARYL COMPOUND, PREPARATION METHOD THEREFOR, HERBICIDAL COMPOSITION AND USE THEREOF” (Qingdao Kingagroot Chemical Compound Co., Ltd., priority 2020, published 2023).

What all share (assay): Weeding effect in post-emergence stage
Holding throughout (format): in vivo

The subject of one assay is Eleusine indica. The note with it: Dose 15 g/ha; for Weeding effect in post-emergence stage, Eleusine indica: level of fresh weight growth control rate. An excerpt:
(§1) The activity level criteria for plant damage (i.e., growth control rate) are as follows:
(§2) Monocotyledonous and dicotyledonous weed seeds (Descurainia sophia, Capsella bursa-pastoris, Abutilon theophrasti, Galium aparine, Stellaria media, Lithospermum arvense, rorippa indica, Alopecurus aequalis, Alopecurus japonicus, Eleusine indica, Beckmannia syzigachne, Sclerochloa dura, Conyza Canadensis, Phleum paniculatum, Veronica didyma Tenore, Bromus japonicus, Aegilops tauschii, Phalaris arundinacea, Amaranthus retroflexus, Chenopodiaceae, Commelina communis, Sonchus arvensis, Convolvulus arvensis, Cirsium setosum, Bidens tripartita L., Solanum nigrum, Acalypha australis, Digitaria sanguinalis, Echinochloa crusgalli, Setaria viridis, Setaria glauca, Leptochloa chinensis, Monochoria vaginalis, Sagittaria trifolia, Scirpus juncoides, Cyperus rotundus, Cyperus iria, Cyperus difformis, Fimbristylis, Portulaca oleracea, Xanthium sibiricum, Pharbitis nil, etc.) and major crop seeds (wheat, corn, rice, soybean, cotton, oilseed rape, millet, sorghum, potato, sesame, ricinus, etc.) were placed in plastic pots filled with soil, then covered with 0.5-2 cm of soil, allowed to grow in a good greenhouse environment. After 2 weeks of sowing, the test plants were treated in the 2-3 leaf stage. The tested compounds of the present invention were respectively dissolved in acetone, then added with Tween 80 and 1.5 liter/ha of emulsifiable concentrate of methyl oleate as synergist, diluted with a certain amount of water to obtain a solution with a certain concentration, and sprayed with a spray tower onto the plants. After the application, the plants were cultured for 3 weeks in the greenhouse, and then the experimental results of the weeding were counted. […]

The subject of a further assay is Alopecurus japonicus. The note with it: Dose 15 g/ha; for Weeding effect in post-emergence stage, Alopecurus japonicus: level of fresh weight growth control rate.
Text: as §1, §2

In the next assay the test system is Abutilon theophrasti. The note with it: Dose 15 g/ha; level of fresh weight growth control rate.
Text: as §1, §2

The test system of the next assay is Setaria viridis. Conditions: Dose 15 g/ha; for Weeding effect in post-emergence stage, Setaria viridis: level of fresh weight growth control rate.
Text: as §1, §2

The next assay relates to Digitaria sanguinalis. Conditions: Dose 15 g/ha; for Weeding effect in post-emergence stage, Digitaria sanguinalis: level of fresh weight growth control rate.
Text: as §1, §2

A further assay has as its system Echinochloa crusgalli. Conditions: Dose 15 g/ha; for Weeding effect in post-emergence stage, Echinochloa crusgalli: level of fresh weight growth control rate.
Text: as §1
Monocotyledonous and dicotyledonous weed seeds (Descurainia sophia, Capsella bursa-pastoris, Abutilon theophrasti, Galium aparine, Stellaria media, Lithospermum arvense, rorippa indica, Alopecurus aequalis, Alopecurus japonicus, Eleusine indica, Beckmannia syzigachne, Sclerochloa dura, Conyza Canadensis, Phleum paniculatum, Veronica didyma Tenore, Bromus japonicus, Aegilops tauschii, Phalaris arundinacea, Amaranthus retroflexus, Chenopodiaceae, Commelina communis, Sonchus arvensis, Convolvulus arvensis, Cirsium setosum, Bidens tripartita L., Solanum nigrum, Acalypha australis, Digitaria sanguinalis, Echinochloa crusgalli, Setaria viridis, Setaria glauca, Leptochloa chinensis, Monochoria vaginalis, Sagittaria trifolia, Scirpus juncoides, Cyperus rotundus, Cyperus iria, Cyperus difformis, Fimbristylis, Portulaca oleracea, Xanthium sibiricum, Pharbitis nil, etc.) and major crop seeds (wheat, corn, rice, soybean, cotton, oilseed rape, millet, sorghum, potato, sesame, ricinus, etc.) were placed in plastic pots filled with soil, then covered with 0.5-2 cm of soil, allowed to grow in a good greenhouse environment. After 2 weeks of sowing, the test plants were treated in the 2-3 leaf stage. The tested compounds of the present invention were respectively dissolved in acetone, then added with Tween 80 and 1.5 liter/ha of emulsifiable concentrate of methyl oleate as synergist, diluted with a certain amount of water to obtain a solution with a certain concentration, and sprayed with a spray tower onto the plants. After the application, the plants were cultured for 3 weeks in the greenhouse, and then the experimental results of the weeding were counted. The doses of the used compounds were 500, 250, 125, 60, 30, 15, 7.5 g/ha, and the averages were obtained by repeating for three times.

Setting [1] is: fresh weight control rate level.

Consider `CCOC(=O)C(C)O/N=C/c1cc(-n2c(=O)n(C)c(=S)n(C)c2=O)c(F)cc1Cl` (racemic) [Compound 2], for which the “Weeding effect in post-emergence stage, Eleusine indica” value in the assay on Eleusine indica is 5 (Level 5: growth control rate is above 85%). In the assay with Alopecurus japonicus, the “Weeding effect in post-emergence stage, Alopecurus japonicus” value is listed as 5 (Level 5: growth control rate is above 85%). Further, the “Weeding effect in post-emergence stage, Abutilon theophrasti” value (“Weeding effect … Abutilon theophrasti” for short) in the assay with Abutilon theophrasti is recorded as 5 (Level 5: growth control rate is above 85%). For the same compound, in the assay with Setaria viridis, the “Weeding effect in post-emergence stage, Setaria viridis” value is on record as 5 (Level 5: growth control rate is above 85%). The “Weeding effect in post-emergence stage, Digitaria sanguinalis” value with Digitaria sanguinalis is recorded as 5 (Level 5: growth control rate is above 85%). The “Weeding effect in post-emergence stage, Echinochloa crusgalli” value in the assay on Echinochloa crusgalli was 5 (Level 5: growth control rate is above 85%).
Regarding `CCCOC(=O)C(C)O/N=C/c1cc(-n2c(=O)n(C)c(=S)n(C)c2=O)c(F)cc1Cl` (racemic) [Compound 4], the “Weeding effect in post-emergence stage, Eleusine indica” value with Eleusine indica is given as 5 (Level 5: growth control rate is above 85%). The “Weeding effect in post-emergence stage, Alopecurus japonicus” value in the assay on Alopecurus japonicus is 5 (Level 5: growth control rate is above 85%). For the same compound, the “Weeding effect … Abutilon theophrasti” value in the assay on Abutilon theophrasti is recorded as 5 (Level 5: growth control rate is above 85%). The “Weeding effect in post-emergence stage, Setaria viridis” value in the assay on Setaria viridis was 5 (Level 5: growth control rate is above 85%). Further, the “Weeding effect in post-emergence stage, Digitaria sanguinalis” value in the assay on Digitaria sanguinalis was 5 (Level 5: growth control rate is above 85%). The “Weeding effect in post-emergence stage, Echinochloa crusgalli” value with Echinochloa crusgalli is listed as 5 (Level 5: growth control rate is above 85%).
For the compound `CC(C)OC(=O)C(C)O/N=C/c1cc(-n2c(=O)n(C)c(=S)n(C)c2=O)c(F)cc1Cl` (racemic) [Compound 5], the “Weeding effect in post-emergence stage, Eleusine indica” value in the assay with Eleusine indica is 5 (Level 5: growth control rate is above 85%). Also, the “Weeding effect in post-emergence stage, Alopecurus japonicus” value in the assay on Alopecurus japonicus is listed as 5 (Level 5: growth control rate is above 85%). Also, in the assay with Abutilon theophrasti, the “Weeding effect … Abutilon theophrasti” value is 5 (Level 5: growth control rate is above 85%). Also, the “Weeding effect in post-emergence stage, Setaria viridis” value with Setaria viridis is reported as 5 (Level 5: growth control rate is above 85%). Besides, the “Weeding effect in post-emergence stage, Digitaria sanguinalis” value in the assay with Digitaria sanguinalis is given as 5 (Level 5: growth control rate is above 85%). For the same compound, in the assay with Echinochloa crusgalli, the “Weeding effect in post-emergence stage, Echinochloa crusgalli” value was 5 (Level 5: growth control rate is above 85%).
`C=CCCOC(=O)C(C)O/N=C/c1cc(-n2c(=O)n(C)c(=S)n(C)c2=O)c(F)cc1Cl` (racemic) [Compound 6]: the “Weeding effect in post-emergence stage, Eleusine indica” value in the assay with Eleusine indica was 5 (Level 5: growth control rate is above 85%). Further, the “Weeding effect in post-emergence stage, Alopecurus japonicus” value in the assay on Alopecurus japonicus is 5 (Level 5: growth control rate is above 85%). The “Weeding effect … Abutilon theophrasti” value in the assay on Abutilon theophrasti is recorded as 5 (Level 5: growth control rate is above 85%). Further, in the assay on Setaria viridis, the “Weeding effect in post-emergence stage, Setaria viridis” value is listed as 5 (Level 5: growth control rate is above 85%). For the same compound, the “Weeding effect in post-emergence stage, Digitaria sanguinalis” value in the assay with Digitaria sanguinalis is given as 5 (Level 5: growth control rate is above 85%). Besides, the “Weeding effect in post-emergence stage, Echinochloa crusgalli” value in the assay on Echinochloa crusgalli was 5 (Level 5: growth control rate is above 85%).
With `CC(O/N=C/c1cc(-n2c(=O)n(C)c(=S)n(C)c2=O)c(F)cc1Cl)C(=O)OCC1CC1` (racemic) [Compound 9], the “Weeding effect in post-emergence stage, Eleusine indica” value in the assay on Eleusine indica is on record as 5 (Level 5: growth control rate is above 85%). The “Weeding effect in post-emergence stage, Alopecurus japonicus” value with Alopecurus japonicus is on record as 5 (Level 5: growth control rate is above 85%). In addition, the “Weeding effect … Abutilon theophrasti” value in the assay on Abutilon theophrasti is 5 (Level 5: growth control rate is above 85%). Besides, the “Weeding effect in post-emergence stage, Setaria viridis” value in the assay with Setaria viridis is given as 5 (Level 5: growth control rate is above 85%). Moreover, the “Weeding effect in post-emergence stage, Digitaria sanguinalis” value in the assay on Digitaria sanguinalis is listed as 5 (Level 5: growth control rate is above 85%). In addition, the “Weeding effect in post-emergence stage, Echinochloa crusgalli” value in the assay with Echinochloa crusgalli is reported as 5 (Level 5: growth control rate is above 85%).
On to `CC(O/N=C/c1cc(-n2c(=O)n(C)c(=S)n(C)c2=O)c(F)cc1Cl)C(=O)OCCF` (racemic) [Compound 10], for which, in the assay on Eleusine indica, the “Weeding effect in post-emergence stage, Eleusine indica” value is 5 (Level 5: growth control rate is above 85%). In addition, the “Weeding effect in post-emergence stage, Alopecurus japonicus” value with Alopecurus japonicus is reported as 5 (Level 5: growth control rate is above 85%). For the same compound, the “Weeding effect … Abutilon theophrasti” value in the assay on Abutilon theophrasti was 5 (Level 5: growth control rate is above 85%). Moreover, the “Weeding effect in post-emergence stage, Setaria viridis” value in the assay with Setaria viridis is given as 5 (Level 5: growth control rate is above 85%). Further, the “Weeding effect in post-emergence stage, Digitaria sanguinalis” value in the assay on Digitaria sanguinalis is 5 (Level 5: growth control rate is above 85%). For the same compound, in the assay with Echinochloa crusgalli, the “Weeding effect in post-emergence stage, Echinochloa crusgalli” value is 5 (Level 5: growth control rate is above 85%).
As for `CC(O/N=C/c1cc(-n2c(=O)n(C)c(=S)n(C)c2=O)c(F)cc1Cl)C(=O)OCCCF` (racemic) [Compound 11], in the assay with Eleusine indica, the “Weeding effect in post-emergence stage, Eleusine indica” value was 5 (Level 5: growth control rate is above 85%). In addition, in the assay on Alopecurus japonicus, the “Weeding effect in post-emergence stage, Alopecurus japonicus” value is given as 5 (Level 5: growth control rate is above 85%). In addition, the “Weeding effect … Abutilon theophrasti” value with Abutilon theophrasti is on record as 5 (Level 5: growth control rate is above 85%). Further, the “Weeding effect in post-emergence stage, Setaria viridis” value in the assay with Setaria viridis is listed as 5 (Level 5: growth control rate is above 85%). Besides, the “Weeding effect in post-emergence stage, Digitaria sanguinalis” value in the assay with Digitaria sanguinalis is 5 (Level 5: growth control rate is above 85%). The “Weeding effect in post-emergence stage, Echinochloa crusgalli” value with Echinochloa crusgalli is listed as 5 (Level 5: growth control rate is above 85%).
For `CC(O/N=C/c1cc(-n2c(=O)n(C)c(=S)n(C)c2=O)c(F)cc1Cl)C(=O)OCCCC(F)(F)F` (racemic) [Compound 12], in the assay with Eleusine indica, the “Weeding effect in post-emergence stage, Eleusine indica” value is listed as 5 (Level 5: growth control rate is above 85%). In addition, the “Weeding effect in post-emergence stage, Alopecurus japonicus” value in the assay with Alopecurus japonicus is listed as 5 (Level 5: growth control rate is above 85%). In the assay with Abutilon theophrasti, the “Weeding effect … Abutilon theophrasti” value is 5 (Level 5: growth control rate is above 85%). Also, in the assay with Setaria viridis, the “Weeding effect in post-emergence stage, Setaria viridis” value is 5 (Level 5: growth control rate is above 85%). Moreover, in the assay on Digitaria sanguinalis, the “Weeding effect in post-emergence stage, Digitaria sanguinalis” value is listed as 5 (Level 5: growth control rate is above 85%). Moreover, the “Weeding effect in post-emergence stage, Echinochloa crusgalli” value in the assay on Echinochloa crusgalli is 5 (Level 5: growth control rate is above 85%).
In the case of `COCCOC(=O)C(C)O/N=C/c1cc(-n2c(=O)n(C)c(=S)n(C)c2=O)c(F)cc1Cl` (racemic) [Compound 14], the “Weeding effect in post-emergence stage, Eleusine indica” value in the assay with Eleusine indica is on record as 5 (Level 5: growth control rate is above 85%). Also, the “Weeding effect in post-emergence stage, Alopecurus japonicus” value in the assay on Alopecurus japonicus was 4 (Level 4: growth control rate is greater than or equal to 60% and less than 85%). For the same compound, the “Weeding effect … Abutilon theophrasti” value with Abutilon theophrasti is recorded as 5 (Level 5: growth control rate is above 85%). Also, in the assay with Setaria viridis, the “Weeding effect in post-emergence stage, Setaria viridis” value was 5 (Level 5: growth control rate is above 85%). Also, in the assay with Digitaria sanguinalis, the “Weeding effect in post-emergence stage, Digitaria sanguinalis” value is 5 (Level 5: growth control rate is above 85%). Besides, in the assay with Echinochloa crusgalli, the “Weeding effect in post-emergence stage, Echinochloa crusgalli” value is on record as 5 (Level 5: growth control rate is above 85%).
Consider `COC(=O)C(C)O/N=C/c1cc(-n2c(=O)cc(C(F)(F)F)n(N)c2=O)c(F)cc1Cl` (centres unmarked) [Control compound E, reference compound], for which the “Weeding effect in post-emergence stage, Eleusine indica (level)” value in the assay on Eleusine indica (setting [1]) was 3 (Level 3: growth control rate is greater than or equal to 40% and less than 60%). For the same compound, the “Weeding effect in post-emergence stage, Alopecurus japonicus (level)” value in the assay with Alopecurus japonicus (setting [1]) was 3 (Level 3: growth control rate is greater than or equal to 40% and less than 60%). In the assay on Setaria viridis (setting [1]), the “Weeding effect in post-emergence stage, Setaria viridis (level)” value was 4 (Level 4: growth control rate is greater than or equal to 60% and less than 85%). Besides, in the assay on Digitaria sanguinalis (setting [1]), the “Weeding effect in post-emergence stage, Digitaria sanguinalis (level)” value is 3 (Level 3: growth control rate is greater than or equal to 40% and less than 60%). Besides, the “Weeding effect in post-emergence stage, Echinochloa crusgalli (level)” value in the assay on Echinochloa crusgalli (setting [1]) was 4 (Level 4: growth control rate is greater than or equal to 60% and less than 85%).
